From patent US9463204B2, “Method for inducing differentiation enabling tumorigenesis of IPS cells to be suppressed” (Osaka University, priority 2011, dated 2016) come the findings set out here.

“Also recorded” adds a separate entry of the source.

This test deals with mouse iPS cells. Briefly: Tumorigenesis suppression effects of statins versus phenamil (osteoblasts from iPS cell aggregates transplanted under mouse dorsal skin). The class given is in vivo. As to the method: Statins are also known as compounds that promote osteoblast differentiation induction, and have the effect of differentiating iPS cells into osteoblasts. Osteoblasts obtained by inducing differentiation in the presence of an osteoblast differentiation induction promoter (phenamil 1 μM) that was not a statin (HMG-CoA reductase inhibitor) were used as a control.
Osteoblasts obtained by inducing differentiation for 30 days in the presence of a statin or phenamil were transplanted under mouse dorsal skin (both sides).

For the molecule `NC(=Nc1ccccc1)NC(=O)c1nc(Cl)c(N)nc1N` [phenamil], for the setting “1 μM compound in osteoblast differentiation-inducing medium for 30 days, 28 days after transplantation under mouse dorsal skin”, the “tumor formation after transplantation (FIG. 7)” value is given as “a tumor was formed; also recorded: no tumor formation suppression effect was observed”. Besides, the “tissue other than bone tissue (tumorigenesis/teratoma) around the grafts (H&E, FIG. 8)” value (1 μM compound, 30 days differentiation induction, grafts extracted after 28 days) is reported as “formation of tissue other than bone tissue (teratoma) was observed”.
